Legend:
emesis in the dog = experiment: Emesis in the Dog (apomorphine-induced retching and vomiting); type: in vivo; conditions: adult female dogs; test compound i.v. at the dose of 1.0 mg/kg; 5 min later subcutaneous apomorphine (0.1 mg/0.5 ml/kg); observed for 60 min
Description: Individually housed adult female dogs (8 to 15 kg) were given an i.v. injection of a solution containing a test compound. 5 Min later the emetic responses (retching and vomiting) were induced by administration of subcutaneous apomorphine (0.1 mg/0.5 ml/kg) and observed for the next 60 min. The timing and number of retches and vomits observed were recorded for each animal. An individual animal was tested with at least 10 days between experiments.

| melting point | Compound | inhibition rate of emesis in the dog (emesis in the dog) [%] |
| --- | --- | --- |
| 155 to 158 °C (dec.) | COc1nc(OC)c(CN2C[C@@H]3CN(C(=O)CO)CCN3[C@H](C(c3ccccc3)c3ccccc3)C2)c(OC)n1.Cl.Cl [Example 1, 2-[(6R, 9aR)-6-benzhydryl-8-[(2,4,6-trimethoxy-5-pyrimidinyl)methyl]octahydro-2H-pyrazino[1,2-a]pyrazin-2-yl]-2-oxoethanol dihydrochloride] | 100 |
| 143 to 147 °C | COc1nc(OC)c(CN2C[C@@H]3CN(C(=O)c4cccnc4)CCN3[C@H](C(c3ccccc3)c3ccccc3)C2)c(OC(C)C)n1.Cl.Cl.Cl | – |
| 98 to 101 °C (dec.) | COc1nc(Cl)c(CN2C[C@@H]3CN(C(=O)CO)CCN3[C@H](C(c3ccccc3)c3ccccc3)C2)c(OC)n1.Cl.Cl | – |
| 139 to 143 °C | COc1nc(OC)c(CN2C[C@@H]3CN(C(=O)N4CCOCC4)CCN3[C@H](C(c3ccccc3)c3ccccc3)C2)c(OC)n1.Cl.Cl | – |
| 129 to 132 °C | COc1nc(C)nc(OC)c1CN1C[C@@H]2CN(C(=O)CO)CCN2[C@H](C(c2ccccc2)c2ccccc2)C1.Cl.Cl | – |
| 143 to 146 °C | COc1nc(OC)c(CN2C[C@@H]3CN(C(=O)CO)CCN3[C@H](C(c3ccccc3)c3ccccc3)C2)c(OCC(F)F)n1.Cl.Cl | – |
| 174 to 177 °C | COc1nc(C)c(CN2C[C@@H]3CN(C(=O)CO)CCN3[C@H](C(c3ccccc3)c3ccccc3)C2)c(OC)n1.Cl.Cl | – |
| 145 to 148 °C (dec.) | COc1nc(OC)c(CN2C[C@@H]3CN(C(=O)CO)CCN3[C@H](C(c3ccccc3)c3ccccc3)C2)c(OC(C)C)n1.Cl.Cl | – |
| 150 to 152 °C (dec.) | CCOc1nc(OC)nc(OC)c1CN1C[C@@H]2CN(C(=O)CO)CCN2[C@H](C(c2ccccc2)c2ccccc2)C1.Cl.Cl | – |
| 150 to 155 °C (dec.) | COc1nc(Cl)nc(OC)c1CN1C[C@@H]2CN(C(=O)CO)CCN2[C@H](C(c2ccccc2)c2ccccc2)C1.Cl.Cl | – |
| 141 to 145 °C | COc1nc(OC)c(CN2C[C@@H]3CN(C(=O)CO)CCN3[C@H](C(c3ccccc3)c3ccccc3)C2)c(OC2CCC2)n1.Cl.Cl | – |
